From ChEMBL document CHEMBL3108745, “Synthesis and structure-activity relationship of 3-hydroxypyridine-2-thione-based histone deacetylase inhibitors” (J Med Chem, 2013)
The source made the active and inactive calls. The rule behind the calls is not given here.

Legend:
[1] = Aqueous solubility of the compound […] at room temperature by UV-vis spectrophotometric analysis; format: physicochemical
[2] = molecular target: T1, Protein deacetylase HDAC6 (Homo sapiens) (UniProt Q9UBN7); assay: Inhibition of HDAC6 in human LNCAP cells assessed as increase in tubulin acetylation at 3.49 to 20 uM after 4 hrs by Western blotting analysis; format: cell-based
T1 sequence (whole entry): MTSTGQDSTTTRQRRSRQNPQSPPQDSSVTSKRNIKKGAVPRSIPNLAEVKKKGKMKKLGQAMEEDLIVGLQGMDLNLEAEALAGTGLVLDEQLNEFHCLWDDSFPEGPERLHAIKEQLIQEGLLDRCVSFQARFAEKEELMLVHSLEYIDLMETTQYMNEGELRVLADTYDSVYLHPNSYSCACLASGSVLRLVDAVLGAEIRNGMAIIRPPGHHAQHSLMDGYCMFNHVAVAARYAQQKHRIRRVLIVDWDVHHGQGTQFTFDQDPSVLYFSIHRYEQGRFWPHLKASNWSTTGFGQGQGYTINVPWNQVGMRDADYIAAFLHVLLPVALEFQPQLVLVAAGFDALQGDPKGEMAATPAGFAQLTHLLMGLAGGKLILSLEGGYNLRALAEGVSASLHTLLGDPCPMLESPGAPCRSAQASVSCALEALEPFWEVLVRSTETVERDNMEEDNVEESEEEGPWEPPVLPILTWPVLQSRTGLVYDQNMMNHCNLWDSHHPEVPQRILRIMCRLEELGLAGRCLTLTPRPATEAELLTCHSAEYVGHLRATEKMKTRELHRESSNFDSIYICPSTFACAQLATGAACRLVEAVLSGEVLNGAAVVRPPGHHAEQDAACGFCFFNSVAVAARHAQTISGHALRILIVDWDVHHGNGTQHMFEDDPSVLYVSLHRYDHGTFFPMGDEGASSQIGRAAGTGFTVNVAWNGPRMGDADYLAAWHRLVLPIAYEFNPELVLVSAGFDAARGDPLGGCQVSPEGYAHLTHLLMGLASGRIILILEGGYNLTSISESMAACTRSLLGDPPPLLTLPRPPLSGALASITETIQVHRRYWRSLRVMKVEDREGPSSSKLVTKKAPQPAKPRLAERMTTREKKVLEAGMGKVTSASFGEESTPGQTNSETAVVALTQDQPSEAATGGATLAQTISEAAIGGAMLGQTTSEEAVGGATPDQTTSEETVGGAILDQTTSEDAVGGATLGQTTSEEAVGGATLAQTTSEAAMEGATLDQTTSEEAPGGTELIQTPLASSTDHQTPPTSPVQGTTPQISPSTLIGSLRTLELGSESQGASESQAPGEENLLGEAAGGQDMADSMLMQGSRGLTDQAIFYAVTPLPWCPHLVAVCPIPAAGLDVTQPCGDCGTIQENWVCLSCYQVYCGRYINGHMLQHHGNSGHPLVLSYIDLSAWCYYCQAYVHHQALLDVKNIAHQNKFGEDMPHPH

[3] = molecular target: T2, Matrilysin (Homo sapiens) (UniProt P09237); assay: Inhibition of MMP-7 (unknown origin) using omniMMP as fluorogenic substrate at 10 uM preincubated for 30 mins followed by substrate addition measured after 30 mins by fluorescence assay
T2 sequence (whole entry): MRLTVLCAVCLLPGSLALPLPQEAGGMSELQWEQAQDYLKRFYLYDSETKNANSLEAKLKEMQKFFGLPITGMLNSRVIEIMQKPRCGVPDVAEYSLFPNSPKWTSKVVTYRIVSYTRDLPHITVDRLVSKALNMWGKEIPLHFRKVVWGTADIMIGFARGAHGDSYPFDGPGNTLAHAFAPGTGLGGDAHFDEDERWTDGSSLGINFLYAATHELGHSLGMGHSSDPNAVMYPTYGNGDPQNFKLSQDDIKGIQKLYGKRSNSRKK

[4] = molecular target: T3, Interstitial collagenase (Homo sapiens) (UniProt P03956); assay: Inhibition of MMP-1 (unknown origin) using omniMMP as fluorogenic substrate at 10 uM preincubated for 30 mins followed by substrate addition measured after 30 mins by fluorescence assay
T3 sequence (whole entry): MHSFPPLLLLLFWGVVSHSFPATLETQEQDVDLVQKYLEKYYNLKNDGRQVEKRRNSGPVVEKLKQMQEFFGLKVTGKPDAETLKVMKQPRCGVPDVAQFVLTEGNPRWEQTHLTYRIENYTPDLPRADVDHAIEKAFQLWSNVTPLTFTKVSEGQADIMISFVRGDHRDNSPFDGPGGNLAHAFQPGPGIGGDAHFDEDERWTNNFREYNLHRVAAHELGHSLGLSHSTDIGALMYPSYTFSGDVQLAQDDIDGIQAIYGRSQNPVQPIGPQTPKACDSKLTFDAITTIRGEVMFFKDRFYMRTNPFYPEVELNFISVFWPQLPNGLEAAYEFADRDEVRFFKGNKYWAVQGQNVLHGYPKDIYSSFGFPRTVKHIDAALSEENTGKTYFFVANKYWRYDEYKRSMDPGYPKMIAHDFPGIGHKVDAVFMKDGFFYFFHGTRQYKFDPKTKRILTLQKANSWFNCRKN

LNCaP [5] = assay: cells; conditions: Homo sapiens, 72 h
Description: Cytotoxicity against androgen-dependent human LNCAP cells assessed as growth inhibition after 72 hrs by MTS assay

Jurkat = assay: cells; format: functional, cell-based; conditions: Homo sapiens, 72 h
Description: Cytotoxicity against human Jurkat cells assessed as growth inhibition after 72 hrs by MTS assay

[6] = molecular target: 72 kDa type IV collagenase (Homo sapiens) (UniProt P08253); assay: Inhibition of MMP-2 (unknown origin) using omniMMP as fluorogenic substrate at 10 uM preincubated for 30 mins followed by substrate addition measured after 30 mins by fluorescence assay
Sequence of 72 kDa type IV collagenase (Homo sapiens) (P08253 110-660 limits assumed): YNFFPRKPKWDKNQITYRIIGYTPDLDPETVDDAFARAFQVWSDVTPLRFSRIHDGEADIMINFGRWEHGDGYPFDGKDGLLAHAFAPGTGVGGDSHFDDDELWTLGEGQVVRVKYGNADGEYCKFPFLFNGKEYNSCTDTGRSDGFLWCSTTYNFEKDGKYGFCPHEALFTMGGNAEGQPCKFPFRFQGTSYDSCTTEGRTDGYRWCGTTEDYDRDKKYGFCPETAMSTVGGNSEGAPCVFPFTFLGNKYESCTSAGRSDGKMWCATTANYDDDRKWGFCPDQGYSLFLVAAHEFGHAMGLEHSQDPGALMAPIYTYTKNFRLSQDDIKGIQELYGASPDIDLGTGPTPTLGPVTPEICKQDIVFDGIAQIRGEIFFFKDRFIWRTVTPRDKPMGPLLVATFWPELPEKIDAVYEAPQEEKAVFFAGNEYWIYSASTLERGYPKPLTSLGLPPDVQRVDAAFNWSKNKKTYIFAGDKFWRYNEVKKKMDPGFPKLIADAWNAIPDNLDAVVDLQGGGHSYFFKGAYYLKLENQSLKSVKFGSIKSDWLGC

[7] = molecular target: Stromelysin-1 (Homo sapiens) (UniProt P08254); assay: Inhibition of MMP-3 (unknown origin) using omniMMP as fluorogenic substrate at 10 uM preincubated for 30 mins followed by substrate addition measured after 30 mins by fluorescence assay
Sequence of Stromelysin-1 (Homo sapiens) (P08254 100-477 limits assumed): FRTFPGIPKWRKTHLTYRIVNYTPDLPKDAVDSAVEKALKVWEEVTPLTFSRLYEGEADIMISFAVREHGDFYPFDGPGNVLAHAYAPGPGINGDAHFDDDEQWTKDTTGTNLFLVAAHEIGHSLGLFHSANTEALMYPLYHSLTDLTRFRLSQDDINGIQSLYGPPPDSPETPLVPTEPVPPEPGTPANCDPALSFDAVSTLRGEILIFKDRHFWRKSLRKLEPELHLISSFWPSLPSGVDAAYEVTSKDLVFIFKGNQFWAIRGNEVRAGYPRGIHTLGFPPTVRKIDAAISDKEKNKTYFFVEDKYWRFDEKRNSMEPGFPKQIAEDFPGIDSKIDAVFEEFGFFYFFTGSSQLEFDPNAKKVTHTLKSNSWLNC

[8] = molecular target: Collagenase 3 (Homo sapiens) (UniProt P45452); assay: Inhibition of MMP-13 (unknown origin) using omniMMP as fluorogenic substrate at 10 uM preincubated for 30 mins followed by substrate addition measured after 30 mins by fluorescence assay
DU-145 = assay: cells; format: functional, cell-based; conditions: Homo sapiens, DU-145, 72 h
Description: Cytotoxicity against androgen-independent human DU145 cells assessed as growth inhibition after 72 hrs by MTS assay

[9] = molecular target: Matrix metalloproteinase-14 (Homo sapiens) (UniProt P50281); assay: Inhibition of MMP-14 (unknown origin) using omniMMP as fluorogenic substrate at 10 uM preincubated for 30 mins followed by substrate addition measured after 30 mins by fluorescence assay
[10] = Cytotoxicity against human Jurkat gamma1 cells assessed as growth inhibition after 72 hrs by MTS assay; format: functional, cell-based
[11] = molecular target: Histone deacetylase 1 (Homo sapiens) (UniProt Q13547); assay: Inhibition of HDAC1 (unknown origin) expressed in Escherichia coli BL21 (DE3) using GRKacFGC as substrate at 10 uM after 60 mins by SAMDI mass spectrometric analysis relative to control
Sequence of Histone deacetylase 1 (Homo sapiens) (Q13547 whole entry): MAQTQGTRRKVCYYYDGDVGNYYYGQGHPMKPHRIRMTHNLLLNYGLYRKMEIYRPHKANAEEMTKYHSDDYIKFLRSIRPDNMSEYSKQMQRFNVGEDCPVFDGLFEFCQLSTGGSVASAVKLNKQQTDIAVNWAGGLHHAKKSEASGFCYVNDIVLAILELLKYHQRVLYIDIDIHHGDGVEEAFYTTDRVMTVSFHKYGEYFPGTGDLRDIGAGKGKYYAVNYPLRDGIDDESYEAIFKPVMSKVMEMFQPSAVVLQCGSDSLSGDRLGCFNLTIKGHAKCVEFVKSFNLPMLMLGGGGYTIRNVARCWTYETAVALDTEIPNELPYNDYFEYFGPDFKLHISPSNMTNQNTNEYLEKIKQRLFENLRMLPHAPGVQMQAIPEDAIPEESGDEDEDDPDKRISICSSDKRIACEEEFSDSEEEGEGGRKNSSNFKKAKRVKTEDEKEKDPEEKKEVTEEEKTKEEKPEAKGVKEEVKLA

Vero = assay: Cytotoxicity against African green monkey Vero cells assessed as growth inhibition after 72 hrs by MTS assay; format: cell-based; conditions: Chlorocebus sabaeus
LNCaP [12] = assay: Potency index, ratio of tubastatin A IC50 to compound IC50 for human LNCAP cells; format: functional
Histone deacetylase 2 = Histone deacetylase 2 (Homo sapiens, UniProt Q92769); assay: Inhibition of HDAC2 (unknown origin) expressed in Escherichia coli BL21 (DE3) using GRKacYGC as substrate after 60 mins by SAMDI mass spectrometric analysis
Sequence of Histone deacetylase 2 (Q92769 whole entry): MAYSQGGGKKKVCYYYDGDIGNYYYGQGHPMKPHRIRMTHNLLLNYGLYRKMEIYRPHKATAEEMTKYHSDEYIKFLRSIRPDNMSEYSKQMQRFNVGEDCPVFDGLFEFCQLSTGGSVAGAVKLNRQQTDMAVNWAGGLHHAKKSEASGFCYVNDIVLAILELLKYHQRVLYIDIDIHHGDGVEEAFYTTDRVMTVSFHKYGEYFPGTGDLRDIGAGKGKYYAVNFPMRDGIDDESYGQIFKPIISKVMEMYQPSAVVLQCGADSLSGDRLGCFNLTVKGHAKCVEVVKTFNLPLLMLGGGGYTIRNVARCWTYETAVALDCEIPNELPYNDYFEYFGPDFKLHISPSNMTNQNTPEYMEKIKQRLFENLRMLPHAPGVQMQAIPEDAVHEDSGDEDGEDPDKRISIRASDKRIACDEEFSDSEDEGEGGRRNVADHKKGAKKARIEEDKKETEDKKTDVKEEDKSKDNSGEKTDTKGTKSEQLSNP

[13] = molecular target: Matrix metalloproteinase-9 (Homo sapiens) (UniProt P14780); assay: Inhibition of MMP-9 (unknown origin) using omniMMP as fluorogenic substrate at 10 uM preincubated for 30 mins followed by substrate addition measured after 30 mins by fluorescence assay
Sequence of Matrix metalloproteinase-9 (Homo sapiens) (P14780 whole entry, the tested form may be a part): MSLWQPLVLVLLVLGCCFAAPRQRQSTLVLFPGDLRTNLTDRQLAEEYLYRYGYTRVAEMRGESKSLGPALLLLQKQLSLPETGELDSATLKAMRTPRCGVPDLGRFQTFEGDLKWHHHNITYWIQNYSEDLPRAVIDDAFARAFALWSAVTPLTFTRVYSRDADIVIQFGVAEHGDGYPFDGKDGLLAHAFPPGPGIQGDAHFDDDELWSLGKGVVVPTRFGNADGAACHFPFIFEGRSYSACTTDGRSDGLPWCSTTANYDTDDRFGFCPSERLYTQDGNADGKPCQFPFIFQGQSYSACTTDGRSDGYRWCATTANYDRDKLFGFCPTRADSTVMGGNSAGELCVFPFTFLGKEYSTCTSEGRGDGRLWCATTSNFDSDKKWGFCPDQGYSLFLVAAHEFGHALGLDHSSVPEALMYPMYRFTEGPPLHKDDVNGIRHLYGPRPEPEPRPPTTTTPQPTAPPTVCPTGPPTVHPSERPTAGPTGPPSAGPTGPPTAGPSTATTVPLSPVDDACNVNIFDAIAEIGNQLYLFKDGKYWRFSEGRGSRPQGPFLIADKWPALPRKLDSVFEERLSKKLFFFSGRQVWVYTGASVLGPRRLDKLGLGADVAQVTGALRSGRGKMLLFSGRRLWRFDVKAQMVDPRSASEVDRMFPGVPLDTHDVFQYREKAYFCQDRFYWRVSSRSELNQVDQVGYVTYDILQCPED

Histone deacetylase 8 = molecular target: T4, Histone deacetylase 8 (Homo sapiens, UniProt Q9BY41); assay: Inhibition of HDAC8 catalytic domain (unknown origin) expressed in Escherichia coli BL21 (DE3) using GRKacFGC as substrate after 60 mins by SAMDI mass spectrometric analysis
T4 sequence (Q9BY41 whole entry): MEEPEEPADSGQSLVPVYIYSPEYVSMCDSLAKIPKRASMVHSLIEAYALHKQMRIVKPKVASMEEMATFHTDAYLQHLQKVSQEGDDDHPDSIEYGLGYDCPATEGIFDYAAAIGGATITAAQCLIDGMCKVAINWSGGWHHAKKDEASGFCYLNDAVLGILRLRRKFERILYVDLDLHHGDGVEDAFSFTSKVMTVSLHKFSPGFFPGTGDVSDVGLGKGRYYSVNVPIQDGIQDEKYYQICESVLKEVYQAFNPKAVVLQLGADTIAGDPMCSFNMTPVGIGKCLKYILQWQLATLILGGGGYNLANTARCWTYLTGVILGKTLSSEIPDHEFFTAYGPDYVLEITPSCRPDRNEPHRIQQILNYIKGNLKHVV

[14] = molecular target: T5, Protein deacetylase HDAC6 (Homo sapiens, UniProt Q9UBN7); assay: Inhibition of HDAC6 (unknown origin) expressed in Escherichia coli BL21 (DE3) using GRKacYGC as substrate after 60 mins by SAMDI mass spectrometric analysis
T5 sequence (Q9UBN7 whole entry): T1 sequence (whole entry)

[15] = molecular target: T1, Protein deacetylase HDAC6 (Homo sapiens); assay: Inhibition of HDAC6 in human LNCAP cells assessed as increase in tubulin acetylation at 5.43 to 20 uM after 4 hrs by Western blotting analysis; format: cell-based

solubility [1] | inhibition [2] | inhibition [3] | inhibition [4] | IC50 (LNCaP [5]) | IC50 (Jurkat) | inhibition [6] | inhibition [7] | inhibition [8] | IC50 (DU-145) | inhibition [9] | inhibition [11] | IC50 (Histone deacetylase 2) | inhibition [13] | IC50 (Histone deacetylase 8) | IC50 [14] | inhibition [15] | Compound | IC50 [10] | IC50 (Vero) | Ratio IC50 (LNCaP [12])
soluble | Active | inactive | inactive | 3.49 µM | 3.44 µM | inactive | inactive | Active | 5.03 µM | inactive | < 20% | 3.68 µM | inactive | – | – | – | N#Cc1cccc(-c2cn(CCCCCn3cccc(O)c3=S)nn2)c1 | 0.9 µM | > 20 µM | 3.1
soluble | – | inactive | inactive | 5.43 µM | 3.27 µM | inactive | inactive | Active | 9.33 µM | inactive | < 20% | 5.84 µM | inactive | 0.917 µM | 0.911 µM | Active | Oc1cccn(CCCCCn2cc(-c3ccccc3)nn2)c1=S | 1.86 µM | > 20 µM | 2
